# Results taken from paper PMC6065180, “An allosteric propofol-binding site in kinesin disrupts kinesin-mediated processive movement on microtubules” (The Journal of Biological Chemistry, 2018).
# Columns and labels:
# KIF3BB = molecular target: T1, KIF3BB (Mus musculus, UniProt Q61771); assay: Qdot single-molecule TIRF motility; format: biochemical; conditions: 10 μM AziPm; 1 mM MgATP, X-rhodamine microtubules, paclitaxel, 5% DMSO, pH 6.9, 25 °C
# T1 construct: gene Kif3b; KIF3B Met1-Leu369, C-terminal EB1 dimerization motif, TEV site and His8 tag kept; E. coli; engineered homodimer, Mr 48,011 per chain
# T1 sequence (Q61771 1-369): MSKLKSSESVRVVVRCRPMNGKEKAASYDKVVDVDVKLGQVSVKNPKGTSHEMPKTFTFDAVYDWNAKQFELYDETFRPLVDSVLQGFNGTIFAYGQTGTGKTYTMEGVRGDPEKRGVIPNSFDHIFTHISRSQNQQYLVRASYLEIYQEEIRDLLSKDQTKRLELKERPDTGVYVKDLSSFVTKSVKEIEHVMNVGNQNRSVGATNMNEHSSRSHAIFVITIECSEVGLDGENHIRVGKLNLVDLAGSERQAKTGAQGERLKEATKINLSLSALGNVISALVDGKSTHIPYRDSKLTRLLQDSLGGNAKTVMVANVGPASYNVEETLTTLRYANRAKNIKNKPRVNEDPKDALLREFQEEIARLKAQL
# KIF3CC = molecular target: T2, KIF3CC (Mus musculus, UniProt O35066); assay: Qdot single-molecule TIRF motility; format: biochemical; conditions: 10 μM AziPm; 1 mM MgATP, X-rhodamine microtubules, paclitaxel, 5% DMSO, pH 6.9, 25 °C
# T2 construct: gene Kif3c; KIF3C Met1-Leu396, C-terminal EB1 dimerization motif, TEV site and His8 tag kept; E. coli; engineered homodimer
# T2 sequence (O35066 1-396): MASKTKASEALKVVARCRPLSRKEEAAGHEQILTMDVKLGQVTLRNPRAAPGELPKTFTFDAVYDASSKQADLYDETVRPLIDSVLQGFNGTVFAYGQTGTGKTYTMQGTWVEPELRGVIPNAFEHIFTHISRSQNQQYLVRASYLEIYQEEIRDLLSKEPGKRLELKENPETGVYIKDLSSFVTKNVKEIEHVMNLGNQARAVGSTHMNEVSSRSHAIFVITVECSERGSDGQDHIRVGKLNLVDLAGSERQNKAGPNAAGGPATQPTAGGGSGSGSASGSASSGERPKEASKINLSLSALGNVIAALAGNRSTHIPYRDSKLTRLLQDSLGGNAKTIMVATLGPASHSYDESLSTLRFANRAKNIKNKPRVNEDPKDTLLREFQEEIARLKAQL
structure (smiles),measurement,setting,value
"CC(C)c1ccc(C2(C(F)(F)F)N=N2)cc1O [AziPm, meta-azipropofol]",% decrease in run length at 10 μM,KIF3BB,~ 50%
same,% decrease in run length at 10 μM,KIF3CC,~ 35%
